Where two headings read alike, the source gives them in different places.
Experiments:
HCMV AD169-GFP [1] = assay: microbe, parasite or virus in culture; format: cell-based, human cytomegalovirus; settings: ratio CC50/EC50; HCMV AD169-GFP, HFFs
Experimental: (i.e., 1 × TCID25/7d). Immediately after virus adsorption, the cells were treated with antiviral compounds or solvent control (DMSO). Infections were performed in biological quadruplicates, or as indicated for individual experiments. The cells were fixed by the addition of 150 µL 10% formalin/well 7 d p.i. (Merlin-GFP 14 d p.i.), and washed with PBS. For GFP or YFP quantitation, the Victor X4 microplate reader (PerkinElmer, Waltham, MA, USA) was primarily used, or as a very sensitive alternative, the ImageXpress® Pico device (Molecular Devices LLC, San Jose, CA, USA). Mean EC50 values of antiviral efficacy were calculated on the basis of three experimental replicates or as indicated (measurement of fluorescence values in quadruplicate), and percentage values were provided relative to the solvent control (DMSO).

HCMV AD169-GFP [2] = tested on: HCMV AD169-GFP; design: method as in PMID 35269635; settings: GFP-based replication assay in HFFs, mean ± SD; cited from earlier work
mock-infected HFFs = settings: cited from earlier work
[3] = tested on: HCMV core NEC pUL50-pUL53; assay: Nuclear rim localization of viral core NEC pUL50-pUL53 (IF, confocal imaging); format: cell-based, human cytomegalovirus; settings: 0.5 µM MBV, 5 nM CCT, 2 nM MSC, 0.7 nM BI; HFFs, AD169-UL50-HA MOI 0.05, 7 d p.i.
Experimental: In order to investigate viral protein expression and localization, 3 × 10^5 HFFs were seeded in 6-well plates one day prior to infection with HCMV AD169-UL50-HA (MOI 0.05). After 90 min of viral absorption, cells were treated with 0.5 µM MBV, 5 nM CCT, 2 nM MSC or 0.7 nM BI-1347. The infected cells were fixed at 7 d p.i., before indirect immunofluorescence staining was performed for viral IE1, pUL50, and pUL53, and signals were evaluated by confocal laser-scanning microscopy (Leica Microsystems, TCS SP5, Wetzlar, Germany). The counterstaining of the nuclei was performed with DAPI.

[4] = mock-infected HFFs, Neutral Red assay, mean ± SD

Q: For Cc1c(Br)c(Br)c2c3c1nc(N1CCNCC1)n3CCC2 [SEL120], which “SI (selectivity index)” value (HCMV AD169-GFP [1]) is on record?
A: 75

Q: And the EC50 (HCMV AD169-GFP [2])?
A: 79 ± 1 nM

Q: What about the CC50 (mock-infected HFFs; [4]) of the same compound?
A: 5900 ± 3850 nM

Q: Which results are given for CC(C)c1cnn2c(NCc3ccccc3-n3cccn3)nc(OC3CCCNC3)nc12 (stereo not drawn) [LDC4297]?
A: EC50 (HCMV AD169-GFP [2]): 9 ± 2 nM; CC50 (mock-infected HFFs): > 10000 nM

Q: With CC(C)Nc1nc2cc(Cl)c(Cl)cc2n1[C@H]1O[C@@H](CO)[C@H](O)[C@@H]1O [MBV, maribavir] as the compound, how does the “SI (selectivity index)” value (HCMV AD169-GFP [1]) read?
A: >250

Q: What about the “nuclear rim localization of core NEC pUL50-pUL53” value [3] of the same compound?
A: clear disruption of the smooth rim

Q: What about the EC50 (HCMV AD169-GFP [2]) of the same compound?
A: 350 ± 420 nM

Q: What about the CC50 (mock-infected HFFs; [4]) of the same compound?
A: > 100000 nM
